How the values were obtained:
[1] = system: hypophysectomized (HYPOX) SPF Sprague Dawley rats; test: Body weight gain in hypophysectomized rats; type: in vivo, rat
Procedure: (§1) Method: This study was performed in order to test and compare the effect of Lys26 CNP-38 PEG4×10 kDa conjugate, Somatropin and combinations of the two compounds in an animal model relevant for investigating treatment of growth deficiency. The Somatropin (human growth hormone, hGH) was a United States Pharmacopeia (USP) Reference Standard and was prepared according to supplier instructions. Lys26 CNP-38 PEG4×10 kDa conjugate and Somatropin were administered alone or in combination via subcutaneous injection to hypophysectomized (HYPOX) SPF Sprague Dawley rats for a total of 29 days. The animals were dosed daily with Somatropin or vehicle, and weekly with Lys26 CNP-38 PEG4×10 kDa conjugate (at two different sites in animals receiving both test items on days 1, 8, 15, 22, and 29). The dose levels employed for Lys26 CNP-38 PEG4×10 kDa conjugate were 0.3, 1.0, and 2.0 mg/kg. Somatropin was employed at […] with a concentration of 10 μg/mL (˜8-10 μg/kg with animal weights between 100-120 g during the study period). The animals were weighed predose and once daily during the dosing period. […] Animals were sacrificed on day 30, and femur and tibia were trimmed and their length measured using a caliper. Hereafter, right tibia was fixed and processed for histologic and histomorphometric analysis.

[2] = system: hypophysectomized (HYPOX) SPF Sprague Dawley rats; test: Femur and tibia length measured with a caliper in hypophysectomized rats; type: in vivo, rat; conditions: Somatropin alone, daily s.c.; relative to the vehicle group; day 30
Procedure: as §1

[3] = system: hypophysectomized (HYPOX) SPF Sprague Dawley rats; test: Histologic evaluation of HE stained right tibia, width of the endochondral/ossification zone; type: in vivo, rat
Procedure: as §1

[4] = system: hypophysectomized (HYPOX) SPF Sprague Dawley rats; test: Histomorphometric measurement of proliferative zone width of right tibia growth plate; type: in vivo, rat; conditions: Somatropin alone versus control (vehicle)
Procedure: as §1

[5] = system: Fgfr3Y367C/+ mice; test: Achondroplasia phenotype in Fgfr3Y367C/+ mice (whole body autoradiography, bone lengths); type: in vivo; conditions: dosing from day 1 of birth for 15 days; single agent or combination
Procedure: Animals are sacrificed on day 16 and tissues fixed for histologic or immunohistochemical analysis. Either compound is administered alone or in combination. The dose levels employed for Rosuvastatin are 0.25, 0.5, 1.0 and 2.0 mg/kg. […] The ratios ranges from 1:1-24:1
Reversion of phenotypical features are assessed using whole body autoradiography. The animals are placed on their right side, with the left hind leg more forward than the right, to allow both hind legs to be visible on the X-ray. Bones obtained at necropsy include femur, tibia, humerus, ulna, lumbar vertebra segment L 4-6 and are measured with a caliper.

Compound: Somatropin: human growth hormone, hGH; United States Pharmacopeia (USP) Reference Standard
- Average BWG (g) (±SE) ([1]; body weight gain day 0 (predose) to day 28, Somatropin alone, daily s.c. 10 μL/animal of 10 μg/mL (~8-10 μg/kg)): 4.44 (±0.94) g
- body weight gain ([1]; compared to vehicle treated group): Significant body weight gains
- increase in femur length [2]: −0.04±0.08 mm
- increase in tibia length [2]: 0.55±0.17 mm
- Number of animals, width of endochondral/ossification zone Normal (grade 0) ([3]; Somatropin alone): 9
- width of the endochondral/ossification zone, histologic evaluation ([3]; compared to vehicle or to conjugate alone): did not differ from background (vehicle)
- width of the proliferative zone [4]: not different from control (vehicle) animals

Compound: CC(C)c1nc(N(C)S(C)(=O)=O)nc(-c2ccc(F)cc2)c1/C=C/[C@@H](O)C[C@@H](O)CC(=O)O [Rosuvastatin]
- reversal of the achondroplasic phenotype [5]: beneficial effect on reversal of the achondroplasic phenotype is observed

From patent publication US12667604B2, “Combination therapy with controlled-release CNP agonists” (ASCENDIS PHARMA GROWTH DISORDERS A/S, priority 2016, dated 2026)
